Values joined by “and” are separate entries in the source; they are usually repeats but may differ in a detail not shown here. Equal entries are not always repeated.
Key:
[1] = system: sdLDL; assay: Glucose-induced sdLDL oxidation, MDA/TBARS (Example 10); format: biochemical, human; conditions: 10.0 μM, glucose 200 mg/dL
Description: Vitamin E (α-tocopherol) purchased from Sigma-Aldrich was prepared in ethanol at 1.0 mM (ε=3.06×10^4 M^−1 cm^−1 at 294 nm) prior to experimental use. Test compounds were further diluted in ethanol or aqueous buffer as needed. Phosphate Buffered Saline (PBS) purchased from Sigma-Aldrich was prepared in double distilled water at 10 mM (138 mM NaCl, 2.7 mM KCl, pH 7.4). […] Lipid oxidation was measured by the colorimetric detection of malondialdehyde (MDA), a marker of oxidative stress.

[2] = system: human sdLDL; assay: Copper-induced sdLDL oxidation, TBARS (Example 7); format: biochemical
Description: (§1) An experiment to study the antioxidant effect of EPA in LDL and small dense […] performed. […] Fenofibrate, gemfibrozil, and niacin were purchased from Sigma-Aldrich. […] Vitamin E was also incubated with sample aliquots as a positive control.

[3] = system: unfractionated LDL; assay: Copper-induced oxidation of unfractionated LDL, TBARS (Example 7); format: biochemical, human; conditions: 10 μM, 1 hr
Description: as §1

[4] = X-ray diffraction of cholesterol domains in POPC/cholesterol model membranes, C/P 1.5:1 (Example 9); conditions: drug-to-phospholipid mole ratio 1:30, C/P 1.5:1
Description: Multilamellar vesicles (MLVs) were prepared as binary mixtures that include palmitoyloleoylphosphatidylcholine (POPC) (1.0 mg total phospholipid per sample) and cholesterol at an elevated cholesterol-to-phospholipid (C/P) mole ratio of 1.5:1. […] Samples were shell-dried under nitrogen gas and placed under vacuum for 3 hours to remove residual solvent at room temperature. After desiccation, each sample was resuspended in saline buffer (0.5 mM HEPES, 154 mM NaCl, pH 7.3) to yield a final phospholipid concentration of 2.5 mg/mL. Lipid suspensions were then vortexed for 3 minutes at ambient temperature to form MLVs.
Briefly, a 100 μL aliquot of each MLV preparation (containing 250 μg MLV) was transferred to a Lucite® sedimentation cell fitted with an aluminum foil substrate designed to collect MLVs into a single membrane pellet upon centrifugation. Samples were then loaded into a Sorvall AH-629 swinging bucket rotor (DuPont Corp., Wilmington, Del.) and centrifuged at 35,000 g, 5° C., for 90 minutes.
After centrifugal orientation, sample supernatants were aspirated and aluminum foil substrates, each supporting a single membrane pellet, were removed from the sedimentation cells. Sample pellets were dried for 5-10 minutes at ambient conditions, mounted onto curved glass supports, and placed in hermetically-sealed, brass or glass containers (for immediate analysis or temporary storage, respectively). All x-ray diffraction experiments were conducted at 20° C., 74% relative humidity. The latter was established by exposing membrane samples to saturated solutions of […] (K2C4H4O6.½H2O) for at least 1 hour prior to experimental analysis.
Oriented membrane samples were aligned at grazing incidence with respect to a collimated, mono-chromatic CuKα x-ray beam (Kα1 and Kα2 unresolved; λ=1.54 Å) produced by a Rigaku Rotaflex RU-200, high-brilliance microfocus generator (Rigaku-MSC, The Woodlands, Tex.) as previously described (Mason et al., Biophys. J., vol. 55(4), pages 769-778 (1989)). The samples were initially subjected to x-ray diffraction analysis at least 12 hours after formation of the membrane pellets and retested for up to several days. Analytical x-rays were generated by electron bombardment of a rotating copper anode and are filtered through a thin nickel foil to provide monochromatic radiation (λ=1.54 Å). Collimation of the x-ray beam was achieved using a single Franks mirror. […]
The d-space for any given membrane multi bilayer is a measurement of the unit cell periodicity of the membrane lipid bilayer (e.g., the distance from the center of one lipid bilayer to the next including surface hydration), and is calculated from Bragg's Law, hλ=2d sin θ, where h is the diffraction order, λ is the wavelength of the x-ray radiation (1.54 Å), d is the membrane lipid bilayer unit cell periodicity, and θ is the Bragg angle equal to one-half the angle between the incident beam and scattered beam.
The presence of cholesterol domains in a given membrane sample results in the production of distinct Bragg (diffraction) peaks having singular periodicity values of 34 and 17 Å (typically referred to as first- and second-order cholesterol domain peaks). Under the specific temperature and relative humidity conditions established for these experiments, the second-order, 17 Å cholesterol domain peak was well-delineated from other, neighboring cholesterol and phospholipid diffraction peaks and was thus used to quantitate relative cholesterol domain peak intensity. […]

[5] = LOOH formation in glucose-treated model membranes, EPA versus EA and ETE (Example 5); format: biochemical; conditions: 72 or 96 hr autoxidation
Description: An experiment was conducted to compare the ability of EPA to prevent lipid hydroperoxide formation in model membranes treated with glucose to two other 20-carbon fatty acids: eicosanoic acid (“EA,” also referred to as arachidic acid, C20:0) and eicosatrienoic acid (“ETE,” C20:3, n-3). All MLV samples were subjected to time-dependent autoxidation by incubating at 37° C. in an uncovered, shaking water bath. This method allows lipid peroxidation to occur gradually without requiring the use of exogenous initiators. Small aliquots (5-100 μL) of each sample were removed, immediately following MLV preparation (0 hr) and after exposing samples to oxidative conditions for 72 or 96 hr, and combined with 1.0 mL of activated CHOD-iodide color reagent. Aliquot volume was reduced with each successive time point to ensure that spectrophotometric readings were within the optimal adsorption range. Test samples were covered and incubated in darkness at room temperature for at least 4 hr. Sample absorbances were then measured against a CHOD blank at 365 nm using a Beckman DU-640 spectrophotometer. The CHOD colorimetric assay is based on the oxidation of iodide (I^−) by lipid hydroperoxide (LOOH) to form triiodide (I3^−), the quantity of which is directly proportional to the amount of LOOH present in the lipid sample. The molar absorptivity (ε) of I3^− is 2.46×10^4 M^−1 cm^−1 at 365 nm.

O=C(O)c1cccnc1 [Niacin, nicotinic acid]
effect on glucose-induced sdLDL oxidation [1]: did not inhibit | effect on sdLDL oxidation ([2]; 10 μM, 1 hr, vs vehicle-treated controls): no significant effect | effect on unfractionated LDL oxidation ([3]; vs vehicle-treated controls): no significant effect | effect on cholesterol domains [4]: no significant changes in cholesterol domain size

CC/C=C\C/C=C\C/C=C\C/C=C\C/C=C\CCCC(=O)O [EPA, cis-5,8,11,14,17-eicosapentaenoic acid]
MDA formation [1]: 0.2 ± 0.1 µM | inhibition of sdLDL oxidation ([1]; vs vehicle controls): 94% | LOOH formation compared to vehicle, glucose, glucose + EA, glucose + ETE [5]: significantly less LOOH formation | effect on sdLDL oxidation ([2]; 10.0 μM, after 4 hours, vs vehicle or DHA): significantly inhibited sdLDL oxidation | inhibition of sdLDL oxidation (TBARS formation) ([2]; each agent at 10 μM, 1 hr, vs vehicle, 10 µM): 93±2% and 92±8% | inhibition of TBARS formation ([3]; unfractionated LDL, vs vehicle): > 90% | reduction in cholesterol domain peaks vs vehicle [4]: 65%

Reference: patent US11446269B2, “Methods of reducing or preventing oxidation of small dense LDL or membrane polyunsaturated fatty acids” (Amarin Pharmaceuticals Ireland Limited, priority 2014, dated 2022)
